Structures can show the parent of a compound that is named as a salt.
Assays:
[1] = in vivo; details: both, beagle, dog, plasma, po, 2 mg/kg
Experimental: Beagles were used as test animals. The plasma concentrations of a compound of the present disclosure in beagles at different time points after intragastric (i.g.) administration were determined using an LC/MS/MS method. The pharmacokinetic behavior of the compound of the present disclosure in beagles was studied, and its pharmacokinetic profile was evaluated.
Eight beagles (half male and half female, provided by Jiangsu Johnbio Biotechnology Co., Ltd.) were evenly divided into 2 groups. The animals were fasted overnight and then subjected to intragastric administration.
The administration dose was 2.0 mg/kg, and the administration volume was 5.0 mL/kg.
The samples were then placed into EDTA-K2 anticoagulation test tubes and centrifuged at 10,000 rpm for 2 min (4 °C), and plasma was separated within 1 h and stored at -80 °C before analysis. The procedures from the blood collection to the centrifugation were performed under ice-bath conditions. Access to food was given 3 h after administration.
After administration of different concentrations of the test compounds, the plasma concentrations of the test compounds in the beagles were determined as follows: 50 µL of each of the beagle plasma samples collected at various time points after administration was taken; 25 µL of camptothecin (1 µg/mL) and 450 µL of acetonitrile were added to precipitate protein, and the mixture was vortex-mixed and then centrifuged at 3700 rpm for 10 min; 0.5 µL of the supernatant was taken for LC/MS/MS analysis.

[2] = Pharmacokinetic evaluation in cynomolgus monkeys, intragastric administration, plasma LC/MS/MS; format: in vivo; details: both sexes, cynomolgus monkey, po, i.g., 2.0 mg/kg
Experimental: Cynomolgus monkeys were used as test animals.
Eight cynomolgus monkeys (half male and half female, provided by Shanghai Medicilon Inc.) were evenly divided into 2 groups.
Access to food and ad libitum access to water were given 3 h after administration.

[3] = Long-term/accelerated stability study (sealed in aluminum foil bags); format: physicochemical; details: for Crystal form: up to 6 months
From the text: The results are shown below. Table 16
The results are shown below. Table 20

[4] = molecular target: T1, androgen receptor (AR) (Homo sapiens, UniProt P10275, T878A); experiment: Degradation activity on androgen receptor in LNCaP cells (AR ELISA); format: cell-based; details: 0.1 nM R1881, 24 h
T1 construct: host or cells: LNCaP
T1 sequence (P10275 whole entry T878A): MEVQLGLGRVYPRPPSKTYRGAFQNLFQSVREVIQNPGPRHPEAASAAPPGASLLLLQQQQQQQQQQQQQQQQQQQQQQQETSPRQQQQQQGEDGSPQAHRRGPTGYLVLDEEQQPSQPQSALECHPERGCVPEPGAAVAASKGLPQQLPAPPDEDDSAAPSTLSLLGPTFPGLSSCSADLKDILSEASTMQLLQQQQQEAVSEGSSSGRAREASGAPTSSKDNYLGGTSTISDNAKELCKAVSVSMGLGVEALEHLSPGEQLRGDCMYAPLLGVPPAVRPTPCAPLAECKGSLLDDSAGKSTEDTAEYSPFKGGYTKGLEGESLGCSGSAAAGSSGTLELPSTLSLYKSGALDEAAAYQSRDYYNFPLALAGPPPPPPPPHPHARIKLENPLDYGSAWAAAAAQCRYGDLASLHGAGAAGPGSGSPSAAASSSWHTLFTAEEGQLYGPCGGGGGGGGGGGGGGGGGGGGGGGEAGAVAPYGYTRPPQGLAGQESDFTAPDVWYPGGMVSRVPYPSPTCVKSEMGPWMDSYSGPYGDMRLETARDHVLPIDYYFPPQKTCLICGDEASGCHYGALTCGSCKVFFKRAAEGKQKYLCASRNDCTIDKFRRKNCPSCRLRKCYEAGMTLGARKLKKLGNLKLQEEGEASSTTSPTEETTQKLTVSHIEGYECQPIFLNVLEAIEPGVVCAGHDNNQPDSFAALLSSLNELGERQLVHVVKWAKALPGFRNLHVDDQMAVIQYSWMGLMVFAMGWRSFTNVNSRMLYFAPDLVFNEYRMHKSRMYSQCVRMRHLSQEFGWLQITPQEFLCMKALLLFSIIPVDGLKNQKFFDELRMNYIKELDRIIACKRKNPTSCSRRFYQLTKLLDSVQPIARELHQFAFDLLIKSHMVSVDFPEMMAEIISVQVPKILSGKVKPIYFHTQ
T1 sequence (Q96SW2 whole entry partner): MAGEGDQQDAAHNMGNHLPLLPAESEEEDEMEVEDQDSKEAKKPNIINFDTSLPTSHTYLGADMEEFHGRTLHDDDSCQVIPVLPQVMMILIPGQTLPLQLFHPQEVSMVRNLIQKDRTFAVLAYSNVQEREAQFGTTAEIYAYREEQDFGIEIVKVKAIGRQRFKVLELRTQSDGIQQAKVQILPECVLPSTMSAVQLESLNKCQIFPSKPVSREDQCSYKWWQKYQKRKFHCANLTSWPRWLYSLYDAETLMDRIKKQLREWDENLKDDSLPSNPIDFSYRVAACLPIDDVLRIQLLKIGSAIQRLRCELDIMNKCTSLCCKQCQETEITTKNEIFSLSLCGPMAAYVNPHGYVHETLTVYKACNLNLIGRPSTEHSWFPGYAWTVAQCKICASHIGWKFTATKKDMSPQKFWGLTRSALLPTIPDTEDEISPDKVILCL
Experimental: After five washes, 100 µL of detection antibody working solution was added. […] After five washes, 100 µL of enzyme conjugate working solution was added. […] After five washes, 100 µL of substrate solution was added.

[5] = Influencing factor stability study (open containers, high temperature / high humidity, 30 days); format: physicochemical
Experimental: Influencing factor stability study: Samples of the free-state form were taken, spread in open containers, and left to stand under high-temperature (40 °C and 60 °C) and high-humidity (RH 75% and RH 92.5%) conditions for 30 days to study its stability.
Influencing factor stability study of salt forms: Samples of the salt forms were taken, spread in open containers, and left to stand under high-temperature (40 °C and 60 °C) and high-humidity (RH 75%) conditions for 30 days to study their stability.

[6] = Dynamic vapor sorption (DVS) hygroscopicity; format: physicochemical

Row | SMILES | Purity (%) ([3]; 25 °C/60% RH, 1 month) | Purity (%) ([3]; 25 °C/60% RH, 2 months) | Purity (%) ([3]; 25 °C/60% RH, 3 months) | Purity (%) ([3]; 25 °C/60% RH, 6 months) | Purity (%) ([3]; 25 °C/60% RH, Initial) | Crystal form ([3]; 25 °C/60% RH) | Purity (%) ([3]; 40 °C/75% RH, 1 month) | Purity (%) ([3]; 40 °C/75% RH, 2 months) | Purity (%) ([3]; 40 °C/75% RH, 3 months) | Purity (%) ([3]; 40 °C/75% RH, 6 months) | Purity (%) ([3]; 40 °C/75% RH, Initial) | Crystal form ([3]; 40 °C/75% RH) | DC50 [4] [nM] | Crystal form ([5]; 40 °C, 5 days) | Purity (%) ([5]; 40 °C, 5 days) | Crystal form ([5]; 40 °C, 10 days) | Purity (%) ([5]; 40 °C, 10 days) | Purity (%) ([5]; 40 °C, 30 days) | Crystal form ([5]; 60 °C, 5 days) | Purity (%) ([5]; 60 °C, 5 days) | other results
1 | N#Cc1ccc(O[C@H]2CC[C@H](NC(=O)c3ccc(N4CCC(CN5CCN(c6cc7c(cc6F)C(=O)N(C6CCC(=O)NC6=O)C7=O)CC5)CC4)nn3)CC2)cc1Cl (stereo partly drawn) [ARV-110] | – | – | – | – | – | – | – | – | – | – | – | – | – | – | – | – | – | – | – | – | AUC(0-t) [1]: 239 ng·h/mL; CL/F [1]: 70.9 mL/min/kg; Cmax [1]: 13 ng/mL; AUC(0-t) ([2]; read-out: Area under curve AUC0-t): 282 ng·h/mL; CL/F ([2]; read-out: Clearance rate CL/F): 44.6 mL/min/kg; Cmax ([2]; read-out: Plasma concentration Cmax): 15.9 ng/mL
2 | C[C@H]1CC2(CCN(c3ccc(C(=O)N4CCC(CN5CCN(c6cccc(N[C@H]7CCC(=O)NC7=O)c6)CC5)CC4)cc3F)CC2)CN1c1ccc(C#N)c(Cl)c1 [Amorphous form of maleate] | 98.9 | 98.9 | 98.9 | 98.7 | 98.9 | No change | 98.7 | 98.6 | 98.3 | 94.8 | 98.9 | No change | – | – | – | – | – | – | – | – | –
3 | C[C@H]1CC2(CCN(c3ccc(C(=O)N4CCC(CN5CCN(c6cccc(NC7CCC(=O)NC7=O)c6)CC5)CC4)cc3F)CC2)CN1c1ccc(C#N)c(Cl)c1 (stereo partly drawn) [Example 1, 2-Chloro-4-((3S)-8-(4-(4-((4-(3-((2,6-dioxopiperidin-3-yl)amino)phenyl)piperazin-1-yl)methyl)piperidine-1-carbonyl)-2-fluorophenyl)-3-methyl-2,8-diazaspiro[4.5]decan-2-yl)benzonitrile] | – | – | – | – | – | – | – | – | – | – | – | – | 2.5 | – | – | – | – | – | – | – | –
4 | C[C@H]1CC2(CCN(c3ccc(C(=O)N4CCC(CN5CCN(c6cccc(N[C@H]7CCC(=O)NC7=O)c6)CC5)CC4)cc3F)CC2)CN1c1ccc(C#N)c(Cl)c1 [Crystal form A of mandelate] | 99.4 | 99.3 | 99.3 | 99.3 | 99.4 | No change | 99.4 | 99.3 | 99.3 | 98.9 | 99.4 | No change | – | No change | 98.6 | No change | 98.6 | 98.4 | No change | 98.4 | Crystal form ([5]; 40 °C, 30 days): No change; Crystal form ([5]; 60 °C, 10 days): No change; Purity (%) ([5]; 60 °C, 10 days): 98.5%; Crystal form ([5]; 60 °C, 30 days): No change; Purity (%) ([5]; 60 °C, 30 days): 98.2%; Crystal form ([5]; 75% RH, 5 days): No change; Purity (%) ([5]; 75% RH, 5 days): 98.5%; Crystal form ([5]; 75% RH, 10 days): No change; Purity (%) ([5]; 75% RH, 10 days): 98.5%; Crystal form ([5]; 75% RH, 30 days): No change; Purity (%) ([5]; 75% RH, 30 days): 98.5%; Purity (%) ([5]; Initial, 0 days): 98.6%; hygroscopic weight gain ([6]; accelerated test conditions, 70% RH): about 1.047%; crystal form before and after DVS testing (XRPD) ([6]; before and after DVS testing): did not change; hygroscopic weight gain ([6]; extreme conditions, 90% RH): about 2.245%; hygroscopic weight gain ([6]; normal storage conditions, 25 °C and 60% RH): about 0.833%
5 | C[C@H]1CC2(CCN(c3ccc(C(=O)N4CCC(CN5CCN(c6cccc(N[C@H]7CCC(=O)NC7=O)c6)CC5)CC4)cc3F)CC2)CN1c1ccc(C#N)c(Cl)c1 [Amorphous form, 2-chloro-4-((S)-8-(4-(4-((4-(3-(((S)-2,6-dioxopiperidin-3-yl)amino)phenyl)piperazin-1-yl)methyl)piperidine-1-carbonyl)-2-fluorophenyl)-3-methyl-2,8-diazaspiro[4.5]decan-2-yl)benzonitrile] | 98.7 | 98.5 | 98.5 | 98.5 | 98.8 | No change | 98.7 | 98.4 | 98.4 | 98.3 | 98.8 | No change | – | No change | 98.7 | No change | 98.6 | 98.6 | No change | 98.6 | Crystal form ([5]; 40 °C, 30 days): No change; Crystal form ([5]; 60 °C, 10 days): No change; Purity (%) ([5]; 60 °C, 10 days): 98.6%; Crystal form ([5]; 60 °C, 30 days): No change; Purity (%) ([5]; 60 °C, 30 days): 98.4%; Crystal form ([5]; 75% RH, 5 days): No change; Purity (%) ([5]; 75% RH, 5 days): 98.7%; Crystal form ([5]; 75% RH, 10 days): No change; Purity (%) ([5]; 75% RH, 10 days): 98.7%; Crystal form ([5]; 75% RH, 30 days): No change; Purity (%) ([5]; 75% RH, 30 days): 98.7%; Crystal form ([5]; 92.5% RH, 5 days): No change; Purity (%) ([5]; 92.5% RH, 5 days): 98.7%; Crystal form ([5]; 92.5% RH, 10 days): No change; Purity (%) ([5]; 92.5% RH, 10 days): 98.7%; Crystal form ([5]; 92.5% RH, 30 days): No change; Purity (%) ([5]; 92.5% RH, 30 days): 98.6%; Purity (%) ([5]; Initial, 0 days): 98.8%; chemical stability ([5]; high-temperature and high-humidity conditions): good chemical stability; physical and chemical stability ([3]; long-term accelerated conditions for 6 months): good physical and chemical stability
6 | C[C@H]1CC2(CCN(c3ccc(C(=O)N4CCC(CN5CCN(c6cccc(N[C@@H]7CCC(=O)NC7=O)c6)CC5)CC4)cc3F)CC2)CN1c1ccc(C#N)c(Cl)c1 [Example 1-2, 2-Chloro-4-((S)-8-(4-(4-((4-(3-(((R)-2,6-dioxopiperidin-3-yl)amino)phenyl)piperazin-1-yl)methyl)piperidine-1-carbonyl)-2-fluorophenyl)-3-methyl-2,8-diazaspiro[4.5]decan-2-yl)benzonitrile] | – | – | – | – | – | – | – | – | – | – | – | – | 14.2 | – | – | – | – | – | – | – | –
7 | C[C@H]1CC2(CCN(c3ccc(C(=O)N4CCC(CN5CCN(c6cccc(N[C@H]7CCC(=O)NC7=O)c6)CC5)CC4)cc3F)CC2)CN1c1ccc(C#N)c(Cl)c1 [Crystal form I of hydrochloride] | – | – | – | – | – | – | – | – | – | – | – | – | – | No change | 97.5 | No change | 96.9 | 95.3 | No change | 97.2 | Crystal form ([5]; 60 °C, 10 days): No change; Purity (%) ([5]; 60 °C, 10 days): 96.5%; Purity (%) ([5]; 60 °C, 30 days): 94.5%; Crystal form ([5]; 75% RH, 5 days): No change; Purity (%) ([5]; 75% RH, 5 days): 97.5%; Crystal form ([5]; 75% RH, 10 days): No change; Purity (%) ([5]; 75% RH, 10 days): 97.1%; Purity (%) ([5]; 75% RH, 30 days): 96.5%; Purity (%) ([5]; Initial, 0 days): 98.1%
8 | C[C@H]1CC2(CCN(c3ccc(C(=O)N4CCC(CN5CCN(c6cccc(N[C@H]7CCC(=O)NC7=O)c6)CC5)CC4)cc3F)CC2)CN1c1ccc(C#N)c(Cl)c1 [Crystal form B of succinate] | 98.5 | 98.5 | 98.7 | 98.6 | 98.7 | No change | 98.5 | 98.5 | 98.5 | 98.3 | 98.7 | No change | – | – | – | – | – | – | – | – | –
9 | C[C@H]1CC2(CCN(c3ccc(C(=O)N4CCC(CN5CCN(c6cccc(N[C@H]7CCC(=O)NC7=O)c6)CC5)CC4)cc3F)CC2)CN1c1ccc(C#N)c(Cl)c1 [Example 1-1, 2-Chloro-4-((S)-8-(4-(4-((4-(3-(((S)-2,6-dioxopiperidin-3-yl)amino)phenyl)piperazin-1-yl)methyl)piperidine-1-carbonyl)-2-fluorophenyl)-3-methyl-2,8-diazaspiro[4.5]decan-2-yl)benzonitrile] | – | – | – | – | – | – | – | – | – | – | – | – | 4.2 | – | – | – | – | – | – | – | –
